Results as given in patent publication US9357779B2 (priority 2010, dated 2016).

Columns and labels:
Plasmopara viticola = assay: Plasmopara test (grapevine)/protective; type: in vivo; conditions: protective, active compound concentration 500 ppm, evaluation 6 days after inoculation
Description: Plasmopara Test (Grapevine)/Protective
To produce a suitable preparation of active compound, 1 part by weight of active compound is mixed with the stated amounts of solvent and emulsifier, and the concentrate is diluted with water to the desired concentration.
To test for protective activity, young plants are sprayed with the preparation of active compound at the stated application rate. After the spray coating has dried on, the plants are inoculated with an aqueous spore suspension of Plasmopara viticola and then remain in an incubation cabin at about 20° C. and 100% relative atmospheric humidity for 1 day. The plants are then placed in a greenhouse at about 21° C. and about 90% atmospheric humidity for 4 days. The plants are then moistened and placed in an incubation cabin for 1 day.
Evaluation is carried out 6 days after the inoculation. 0% means an efficacy which corresponds to that of the control, whereas an efficacy of 100% means that no infection is observed.

Phytophthora infestans = type: in vivo; conditions: tomato plants, protective, active compound concentration 500 ppm, evaluation 7 days after inoculation
[1] = acidic range, pH 2.7, 0.1% aqueous formic acid/acetonitrile
Description: (§1) Calibration was carried out using unbranched alkan-2-ones (having from 3 to 16 carbon atoms) with known log P values (the log P values were determined by the retention times using linear interpolation between two successive alkanones).

[2] = pH 2.7, log P [a], acidic range, pH 2.7, 0.1% aqueous formic acid/acetonitrile

Description for physchem: as §1

Row | SMILES | efficacy (Plasmopara viticola) [%] | efficacy (Phytophthora infestans) [%] | log P [a] [1] | chromatographic logP (physchem; [2]) | chromatographic logP (physchem; pH 7.8)
1 | O=C(/C=C/c1csc(C2CCN(C(=O)Cn3nc(C(F)F)cc3C(F)F)CC2)n1)C1CCCC1 [Compound I-49] | 79 | 90 | 3.52^[a] | – | –
2 | O=C(/C=C/c1csc(C2CCN(C(=O)Cn3nc(C(F)F)cc3C(F)F)CC2)n1)c1ccccc1Br [Compound I-29] | 95 | 100 | 3.51^[a]; | – | –
3 | O=C(/C=C/c1csc(C2CCN(C(=O)Cn3nc(C(F)F)cc3C(F)F)CC2)n1)c1cccc(F)c1 [Compound I-52] | 94 | 98 | 3.35^[a] | – | –
4 | O=C(/C=C/c1csc(C2CCN(C(=O)Cn3nc(C(F)F)cc3C(F)F)CC2)n1)C1CCCCC1 [Compound I-44] | 74 | 95 | 3.89^[a] | – | –
5 | O=C(CC1CCCCC1)c1csc(C2CCN(C(=O)Cn3nc(C(F)F)cc3C(F)F)CC2)n1 [Compound I-24, 2-[3,5-Bis(difluoromethyl)-1H-pyrazol-1-yl]-1-{4-[4-(cyclohexylacetyl)-1,3-thiazol-2-yl]piperidin-1-yl}ethanone] | 100 | 94 | – | – | –
6 | O=C(/C=C/c1csc(C2CCN(C(=O)Cn3nc(C(F)F)cc3C(F)F)CC2)n1)c1c(F)cc(F)cc1F [Compound I-57] | 91 | 98 | 3.51^[a]; | – | –
7 | O=C(/C=C/c1csc(C2CCN(C(=O)Cn3nc(C(F)F)cc3C(F)F)CC2)n1)c1ccccc1Cl [Compound I-42] | 90 | 100 | 3.51^[a] | – | –
8 | Cc1ccccc1C(=O)/C=C/c1csc(C2CCN(C(=O)Cn3nc(C(F)F)cc3C(F)F)CC2)n1 [Compound I-45] | 100 | 95 | 3.56^[a] | – | –
9 | CC1CCCCC1C(=O)C=Cc1csc(C2CCN(C(=O)Cn3nc(C(F)F)cc3C(F)F)CC2)n1 (mixture of isomers) [Compound I-50] | 93 | 95 | 4.11^[a] | – | –
10 | O=C(/C=C/c1csc(C2CCN(C(=O)Cn3nc(C(F)F)cc3C(F)F)CC2)n1)c1ccc(F)cc1Br [Compound I-34] | 84 | 95 | 3.7^[a]; | – | –
11 | O=C(/C=C/c1csc(C2CCN(C(=O)Cn3nc(C(F)F)cc3C(F)F)CC2)n1)c1cc(F)ccc1Cl [Compound I-35] | 89 | 95 | 3.64^[a]; | – | –
12 | O=C(/C=C/c1csc(C2CCN(C(=O)Cn3nc(C(F)F)cc3C(F)F)CC2)n1)c1c(F)cccc1Cl [Compound I-36] | 96 | 100 | 3.54^[a]; | – | –
13 | O=C(/C=C/c1csc(C2CCN(C(=O)Cn3nc(C(F)F)cc3C(F)F)CC2)n1)c1ccccc1I [Compound I-33] | 89 | 95 | 3.65^[a]; | – | –
14 | C#CCOc1ccccc1C(=O)/C=C/c1csc(C2CCN(C(=O)Cn3nc(C(F)F)cc3C(F)F)CC2)n1 [Compound I-55] | 100 | 98 | 3.28^[a] | – | –
15 | O=C(/C=C/c1csc(C2CCN(C(=O)Cn3nc(C(F)F)cc3C(F)F)CC2)n1)c1c(Cl)cccc1Cl [Compound I-43] | 100 | 90 | 3.7^[a] | – | –
16 | O=C(/C=C/c1csc(C2CCN(C(=O)Cn3nc(C(F)F)cc3C(F)F)CC2)n1)c1c(F)cccc1F [Compound I-22, (2E)-3-[2-(1-{[3,5-Bis(difluoromethyl)-1H-pyrazol-1-yl]acetyl}piperidin-4-yl)-1,3-thiazol-4-yl]-1-(2,6-difluorophenyl)prop-2-en-1-one] | 100 | 100 | – | 3.35 | –
17 | O=C(/C=C/c1csc(C2CCN(C(=O)Cn3nc(C(F)F)cc3C(F)F)CC2)n1)c1cccc2ccccc12 [Compound I-46] | 100 | 95 | 2.84^[a] | – | –
18 | O=C(CC1CCCCC1)c1csc(C2CCN(C(=O)Nc3cc(C(F)F)ccc3C(F)F)CC2)n1 [Compound I-30] | 85 | 95 | 4.3^[a]; | – | –
19 | Cc1ccc(Cl)cc1NC(=O)N1CCC(c2nc(C(=O)CC3CCCCC3)cs2)CC1 [Compound I-25, N-(5-Chloro-2-methylphenyl)-4-[4-(cyclohexylacetyl)-1,3-thiazol-2-yl]piperidine-1-carboxamide] | 96 | 100 | – | 4.51 | 4.55
20 | CC(CC(=O)c1c(F)cccc1F)c1csc(C2CCN(C(=O)Cn3nc(C(F)F)cc3C(F)F)CC2)n1 (centres unmarked) [Compound I-51] | 100 | 98 | – | – | –
